Measurements as given in ChEMBL document CHEMBL1158871, “Minor Bioactive Dihydrophenanthrenes from Juncus effusus” (1997).

Columns and labels:
Format in all cases: functional
Conditions in all cases: UTEX 1648, light or radiation study, read-out: GI
[1] = tested on: Selenastrum capricornutum; experiment: Antialgal activity against Selenastrum capricornutum UTEX 1648 assessed as growth inhibition at 5 uM exposed to 150 uEs'-1m'-2 irradiation under 16 hrs light/8 hrs dark photoperiod conditions relative to control
[2] = tested on: Selenastrum capricornutum; experiment: Antialgal activity against Selenastrum capricornutum UTEX 1648 assessed as growth inhibition at 10 uM exposed to 150 uEs'-1m'-2 irradiation under 16 hrs light/8 hrs dark photoperiod conditions relative to control
[3] = tested on: Selenastrum capricornutum; experiment: Antialgal activity against Selenastrum capricornutum UTEX 1648 assessed as growth inhibition at 0.1 mM exposed to 150 uEs'-1m'-2 irradiation under 16 hrs light/8 hrs dark photoperiod conditions relative to control
[4] = tested on: Selenastrum capricornutum; experiment: Antialgal activity against Selenastrum capricornutum UTEX 1648 assessed as growth inhibition at 50 uM exposed to 150 uEs'-1m'-2 irradiation under 16 hrs light/8 hrs dark photoperiod conditions relative to control

SMILES | inhibition of growth at 5 µM [1] [%] | inhibition of growth at 10 µM [2] [%] | inhibition of growth at 100 µM [3] [%] | inhibition of growth at 50 µM [4] [%]
Cc1c(O)ccc2c1CCc1c(C)c(O)cc(CO)c1-2 | 4 | 10 | 70 | 40
C=Cc1cc(CO)cc2c1-c1ccc(O)c(C)c1CC2 | 0 | 0 | 57 | 38
C=Cc1c(CO)ccc2c1-c1ccc(O)c(C)c1CC2 | 0 | 5 | 64 | 40
Cc1cc(CO)c2c(c1)CCc1c-2ccc(O)c1C | 7 | 20 | 80 | 50
COc1cc(CO)c2c(c1C)CCc1c-2ccc(O)c1C | 0 | 18 | 80 | 55
Cc1c(O)ccc2c1CCc1c(C)c(O)cc(C(C)O)c1-2 (stereo not drawn) | 5 | 20 | 75 | 52
Cc1cc2c(c3c1OC(O)C3O)-c1ccc(O)c(C)c1CC2 (stereo not drawn) | 0 | 0 | 20 | 10
